# Assay results from US20020058699A1, “Methods for treating seizure disorders by inhibiting MAPK pathway activation” (priority 2000, published 2002).
# Entries after “also recorded” stand apart in the source; their conditions may differ.
# Key:
# [1] = tested on: transient K+ currents composed of Kv4.2 subunits; assay: Transient K+ currents recorded in distal dendrites of hippocampal area CA1 slices; format: cell-based
# Procedure: MEK inhibitor PD098059 ([…]) or vehicle was applied to the hippocampal CA1 slices at least 20 minutes before recording conductance.
# The functional consequence of MAPK inhibition on transient K^+currents composed of Kv4.2 subunits as recorded in distal dendrites of hippocampal area CA1 was evaluated. The MEK inhibitor PD098059 ([…]) or vehicle was applied to the hippocampal CA1 slices at least 20 min prior to recording conductance.
# [2] = tested on: kainate-induced limbic motor seizures; assay: Kainate-induced seizures scored by Racine Classification Scale; format: in vivo, rat
# Procedure: Male Sprague-Dawley rats (125-200 gm) were administered kainate at a dose of 15 mg/kg IP while the control animals (CTL) received vehicle IP (saline). Seizures were scored independently by two investigators in accordance with the Racine Classification Scale (0=no seizures, 1=mouth/face movements; 2=head nodding; 3=forelimb clonus; 4=rearing; and 5=rearing and falling). [Ben-Ari et al., Devl. Brain. Res. 14:284-288 (1985)]. Seizure score is shown plotted against time in the kainate-treated and control (vehicle-injected) animals.
# (§1) Adult rats were injected IP with SL327 100 mg/kg or vehicle alone (PEG400/ETOH) were administered 30 minutes later with kainate or vehicle (saline). Animals were sacrificed at following 1 hour of kainate-induced seizures or three hours after kainate injection. Hippocampal regions CA1, CA3, and dentate were removed and processed for Western blotting, as described in Example 1.
# Animals were treated as described in Example 2 except that SL327 was administered at 400 mg/kg.
# ERK MAPK (p42 and p44) = assay: Hippocampal ERK activation by Western blotting (phospho-ERK and total ERK); format: in vivo, rat; conditions: for basal ERK phosphorylation: CTL+SL327 400 mg/kg; for kainate-induced ERK phosphorylation: KA+SL327 400 mg/kg; for basal ERK activation (phospho-ERK): control+SL327 100 mg/kg; for kainate-induced ERK activation (phospho-ERK): kainate+SL327 100 mg/kg; for ERK activation (phospho-ERK): kainate+vehicle (PEG400/ETOH)
# Procedure: Hippocampal ERK activation was quantified by Western blotting using the method described by Atkins el al.[Atkins et al., Nat. Neurosci. 1:602-609 (1998)] with minor modifications. In brief, animals were sacrificed at 30 minutes and after 1 hr of class 5 seizures (150 min post injection) and the hippocampus was dissected. CA1, CA3 and dentate subregions were dissected in ice-cold saline and homogenates prepared by extracting with denaturing detergent. Protein concentrations were deteremined by Bradford Assay. Homogenates were subjected to Western blotting (immunoblots) prepared by routine methods (for example, see Harlow and Lane, in ANTIBODIES: A LABORATORY MANUAL, Cold Spring Harbor Laboratory Press (1988)). Blotted protein was detected using antibodies to total ERK (1:10,000) and dually phosphorylated, activated ERK MAPK (p42 and p44)(1:1000)(Cell Signaling). Enzyme activity associated with a secondary antibody was detected by incubation with Enhanced Chemiluminescent Reagent (BioRad Laboratories, Hercules Calif.) as substrate. Immunoreactivity of the total ERK and dually phosphorylated activated ERK MAPK in the blot was quantified using densitometry (Scion) for representative blots of p42 and analyzed by Student's t-test.
# as §1
# ERK phosphorylation in brain tissue was evaluated in kainate challenged animals pretreated with 400 mg/kg SL327. […] CA1, CA3, and dentate were dissected and processed for Western blotting as described in Example 1. […] Tukey's Multiple Comparison Test: ***p<0.001.
# Kv4.2 [3] = assay: Phospho-Kv4.2 Western blotting of hippocampal membrane fractions from kainate and control animals; format: in vivo, rat
# Procedure: Western blotting using the phospho-Kv4.2 antibody to the ERK sites was performed on membrane fractions from kainate and control animals pretreated with SL327 as described in Example 1. See also Adams et al., J. Neurochem. 75:2277-2287 (2000), and Anderson et al., J. Biol. Chem. 275:5337-5346 (2000). Animals were sacrificed 30 minutes after kainate (before overt seizures) and 1 hour after continuous motor seizures.
# CREB = assay: Phospho-CREB Western blots of hippocampus; format: in vivo, rat
# Procedure: Western blots prepared using CA1, CA3 and dentate regions of the hippocampus from rats following kainate-induced status epilepticus (KA, n=3) or vehicle alone (CTL, n=3) were performed using phospho-CREB antibodies. […] There is a small but significant decrease in CREB phosphorylation in CA3 (CA3 80.4±9.0%; *p<0.05, ***p<0.001).
# Hippocampal region CA1 was removed 2 hours after rats were treated IP with the MEK inhibitor, SL327 (100 mg/kg) or vehicle alone. Western blots were developed using the phosho-CREB antibody.
# [4] = Behavioral observation of animals treated with SL327; format: in vivo, rat
# Kv4.2 [5] = conditions: U0126 20 μM, rat hippocampal slices, CA1
# Procedure: Rat hippocampal slices were bathed in vehicle with MEK inhibitor U0126 (20 μM) or vehicle alone (CTL).
# phospho-ERK = assay: Phospho-ERK immunohistochemistry of hippocampus; format: in vivo, rat; conditions: 150 min after kainate; stratum oriens of CA1, stratum radiatum of CA1 and CA3, dentate hilus, mossy fiber inputs to CA3
# Procedure: Immunohistochemical analysis of stained neural tissue was performed as described by Varga et al., Learn Mem 7;321-322 (2000), with the following modifications. In this case, kainate and control animals were sacrificed at 150 minutes following injection, while in stage 5 seizures for about 1 hour. After tissue fixation, 20-micron sections were thaw-mounted and incubated in 0.3% H2O2 in methanol for 30 minutes at RT, washed in PBST (PBS containing 0.2% Triton X-100), and blocked in PBST containing 5% normal goat serum (NGS). Sections were then incubated with the phospho-ERK antibody (1:100) overnight, washed with PBST, and incubated with a 1:200 dilution of goat anti-rabbit biotinylated secondary antibody for 30 minutes at RT. After washing and incubation with a 1:50 dilution of ABC reagent (Pierce) for 30 minutes at RT, sections were again washed in PBST and then stained using metal enhanced DAB. Sections were then rinsed, cleared, and coverslipped using a xylene based medium.
# phospho-Kv4.2 = assay: Phospho-Kv4.2 immunohistochemistry of hippocampus; format: in vivo, rat; conditions: after kainate-induced seizures; stratum oriens and radiatum of CA1 and CA3, dentate hilus
# Procedure: [insert*: see symbol after “antibody”] Immunohistochemistry using phospho-Kv4.2 antibody (phospho-Kv4.2) to the ERK sites was performed as described in Example 1 for the same animal groups. […] These areas include stratum oriens and stratum radiatum of areas CA1 and CA3 and the dentate hilus.
# [6] = SL327 100 mg/kg IP 30 min before kainate
# [7] = vehicle-treated kainate group (no SL327)
smiles,measurement,setting,value
"COc1cccc(-c2cc(=O)c3ccccc3o2)c1N [PD098059, 2-(2′-amino-3′-methoxyphenyl)-oxanaphthalen-4-one]",effect on conductance / voltage-dependence of K+ currents in dendrites,[1]; MEK inhibitor applied to hippocampal CA1 slices at least 20 min before recording,hyperpolarizing shift; also recorded: Conductance with inhibitor was increased compared to controls at almost all voltages applied
same,"V½ of steady-state activation, after compound","[1]; as printed: after compound, PD098059 50 μM applied at least 20 min before recording, n=10",−2 mV
same,"V½ of steady-state activation, before compound","[1]; as printed: before compound, n=7",−9 mV
"N#CC(=C(N)Sc1ccc(N)cc1)c1ccccc1C(F)(F)F [SL327, Z- and E-α-[amino[(4-aminophenyl)thio]methylene]-2-(trifluoromethyl)benzeneacetonitrile]",animals with class 5 seizures,[2]; [6],100%
same,block of kainate-induced seizures,[2]; [6],did not block kainate-induced seizures
same,block of kainate-induced limbic motor seizures,[2]; SL327 400 mg/kg IP 30 min before kainate 15 mg/kg,blocks limbic motor status epilepticus; also recorded: effectively blocked kainate-induced limbic motor seizures
same,basal ERK phosphorylation,ERK MAPK (p42 and p44); CA1,8.4±7.2 % of CTL+Vehicle
same,basal ERK phosphorylation,ERK MAPK (p42 and p44); CA3,2.9±0.5 % of CTL+Vehicle
same,basal ERK phosphorylation,ERK MAPK (p42 and p44); dentate,3.1±0.8 % of CTL+Vehicle
same,kainate-induced ERK phosphorylation,ERK MAPK (p42 and p44); CA1,31.5±10.5 % of CTL+Vehicle
same,kainate-induced ERK phosphorylation,ERK MAPK (p42 and p44); CA3,26.2±10.8 % of CTL+Vehicle
same,kainate-induced ERK phosphorylation,ERK MAPK (p42 and p44); dentate,24.7±9.9 % of CTL+Vehicle
same,total ERK1/ERK2 MAPK protein,"ERK MAPK (p42 and p44); SL327 400 mg/kg pretreatment, total ERK antibody",no changes in total protein
same,basal ERK activation (phospho-ERK),ERK MAPK (p42 and p44); CA1,46.05 (±15.89) % control
same,basal ERK activation (phospho-ERK),ERK MAPK (p42 and p44); CA3,37.51 (±9.59) % control
same,basal ERK activation (phospho-ERK),ERK MAPK (p42 and p44); dentate,32.16 (±11.46) % control
same,kainate-induced ERK activation (phospho-ERK),ERK MAPK (p42 and p44); CA1,220.70 (±35.80) % control
same,kainate-induced ERK activation (phospho-ERK),ERK MAPK (p42 and p44); CA3,143.60 (±22.26) % control
same,kainate-induced ERK activation (phospho-ERK),ERK MAPK (p42 and p44); dentate,195.6 (±18.58) % control
same,"unspecified quantity, % of control","[1]; n=2, Control 85.55%",61.83 % of control
same,phospho-Kv4.2,"Kv4.2 [3]; KA+SL327 400 mg/kg, CA1",152.8±41.4 % of CTL+SL327
same,phospho-Kv4.2,"Kv4.2 [3]; KA+SL327 400 mg/kg, CA3",170.8±16.6 % of CTL+SL327
same,phospho-Kv4.2,"Kv4.2 [3]; KA+SL327 400 mg/kg, dentate",66.6±10.36 % of CTL+SL327
same,activated CREB (phospho-CREB),"CREB; CA1, 2 hours after SL327 100 mg/kg IP",reduces the amount of activated CREB
same,sedation,"[4]; SL327 400 mg/kg, all groups",modest degree of apparent sedation
same,locomotor activity,"[4]; SL327 400 mg/kg, some animals in kainate and control groups",increase in locomotor activity
same,lethargy or other behavioral changes,"[4]; control animals, SL327 100 mg/kg",No obvious lethargy or other behavioral changes
N#CC(=C(/N)Sc1ccccc1N)/C(C#N)=C(\N)Sc1ccccc1N [U0126],detection by MAPK-Kv4.2 phospho-selective antibody (basal Kv4.2 phosphorylation),Kv4.2 [5],61.14%±8.74 % of control
C=C(C)[C@H]1CN[C@H](C(=O)O)[C@H]1CC(=O)O [kainate],seizure class (Racine Classification Scale),"[2]; kainate 15 mg/kg IP, male Sprague-Dawley rats, within 90 min, persisted until 150 min",all of the animals studied developed class 5 seizures
same,animals progressed to Class 3 seizures,[2]; [7],1/9
same,animals progressed to Class 5 seizures,[2]; [7],6/9
same,animals that developed limbic motor seizures,[2]; [7],78%
same,animals with no evidence of motor seizures,[2]; [7],2/9
same,phospho-ERK2 immunoreactivity,"ERK MAPK (p42 and p44); CA1, 30 min after kainate 15 mg/kg IP, prior to behavioral seizures",218.9 (±40.66) % CTL
same,phospho-ERK2 immunoreactivity,"ERK MAPK (p42 and p44); CA1, 150 min after kainate, class 5 seizures",165.5±16.5 % of control
same,phospho-ERK2 immunoreactivity,"ERK MAPK (p42 and p44); CA3, 30 min after kainate 15 mg/kg IP",206.80 (±31.61) % CTL
same,phospho-ERK2 immunoreactivity,"ERK MAPK (p42 and p44); CA3, 150 min after kainate, class 5 seizures",153.1±10.3 % of control
same,phospho-ERK2 immunoreactivity,"ERK MAPK (p42 and p44); dentate, 30 min after kainate 15 mg/kg IP",305.50 (±58.26) % CTL
same,phospho-ERK2 immunoreactivity,"ERK MAPK (p42 and p44); dentate, 150 min after kainate, class 5 seizures",224.8±34.1 % of control
same,total MAPK immunoreactivity,"ERK MAPK (p42 and p44); kainate versus control, total MAPK antibody",No difference
same,ERK activation (phospho-ERK),ERK MAPK (p42 and p44); CA1,215.40 (±24.19) % control
same,ERK activation (phospho-ERK),ERK MAPK (p42 and p44); CA3,196.60 (±6.69) % control
same,ERK activation (phospho-ERK),ERK MAPK (p42 and p44); dentate,219.60 (±8.82) % control
same,ERK phosphorylation of Kv4.2,"Kv4.2 [3]; CA1, 30 min after kainate injection",48.80±6.95 % control
same,ERK phosphorylation of Kv4.2,"Kv4.2 [3]; CA3, 30 min after kainate injection",128.70±29.12 % control
same,phospho-Kv4.2,"Kv4.2 [3]; KA+Vehicle, CA1, after 1 hr limbic motor seizures",535.5±84.1 % of CTL+Vehicle
same,phospho-Kv4.2,"Kv4.2 [3]; KA+Vehicle, CA3, after 1 hr limbic motor seizures",442.0±57.0 % of CTL+Vehicle
same,phospho-Kv4.2,"Kv4.2 [3]; KA+Vehicle, dentate, after 1 hr limbic motor seizures",1177.0±361.1 % of CTL+Vehicle
same,ERK phosphorylation of Kv4.2,"Kv4.2 [3]; dentate, 30 min after kainate injection",109.10±11.09 % control
same,CREB phosphorylation,"CREB; CA1, kainate-induced status epilepticus",162.9±29.4 % of control
same,CREB phosphorylation,"CREB; CA3, kainate-induced status epilepticus",80.4±9.0%
same,CREB phosphorylation,"CREB; dentate, kainate-induced status epilepticus",138.0±4.4 % of control
same,phospho-ERK staining,phospho-ERK,increased greatly
same,phospho-Kv4.2 staining,phospho-Kv4.2,increase in phospho-Kv4.2
